Measurements: patent publication US7691416B2, “Methods of treating vascular disease” (priority 2002, dated 2010)

Legend:
p21Cip1 = experiment: Western blot of p21Cip1 expression; assay type: cell-based, mouse
Source text: (§1) Animals. Male (250-350 g) Brown Norway rats (RT1^n) were used as aortic graft donors and male (250-350 g) Lewis rats (RT11) as recipients. Dawley (400-450 g) rats were used in the balloon injury model. Adult male C57BL/6, C57/S129, p21^−/− and p53^−/− null mice were purchased from Jackson Laboratory (Bar Harbor, Me.). mkk3^(−/−) null mice were generated as described Lu et al. (EMBO. 18:1845-1857 (1999)). The inos^−/− and enos^−/− mice were bred at the University of Pittsburgh. Aortic transplant model. Aortic transplantation was performed as described in Shimizu et al. (Nat. Med. 7:738-741 (2001)). Briefly, 3 to 4 cm of descending aorta was harvested from the donor and implanted between the renal arteries and the aortic bifurcation of the recipient. Both edges of the native abdominal aorta were ligated. Balloon injury model. Balloon angioplasty was carried out as described in Murakami et al. (Atherosclerosis 157:361-368 (2001)). Briefly, a 2 Fr. arterial embolectomy catheter (Baxter, Chicago, Ill.) was inserted into the common carotid artery, and injury was created by inflating the balloon to 5 atmospheres of pressure for 5 minutes. The arteries were flushed and the external carotid artery was ligated, ensuring return of blood flow through the common and internal carotid arteries. Injury of the vessel wall and subsequent pathological analysis was made in a manner that was blinded to the treatment group. CO exposure. CO was delivered to animals as described in Otterbein et al. (Nat. Med. 6:422-428 (2000)). Graft donors and recipients were exposed to CO (250 ppm) for two days before transplantation and for 56 days immediately following transplantation. In the balloon injury model, rats received either no pretreatment or were exposed to CO (250 ppm) for one hour prior to injury. Following surgery rats were housed in room air for two weeks. Cells. Primary mouse and rat smooth muscle cells (SMC) were isolated and cultured as described in Laubach et al. (Proc Natl Acad Sci USA 92:10688-9 (1995)). Mouse SMC isolated from HO-1^−/− mice were obtained as described in Duckers et al. (Nat. Med. 7:693-698 (2001)). Cell treatment and reagents. Guanylate cyclase inhibitor 1H(1,2,4) oxadiazolo(4,3-a)quinoxalin-1 (ODQ; Calbiochem-Novabiochem, San Diego, Calif.; 10-100 μM) and p38 MAPK inhibitor pyridinyl imidazol SB203580 (Calbiochem; 5-20 μM) were dissolved in DMSO. The cGMP analogue 8-bromo-cGMP sodium salt (8-Br-cGMP; Sigma-Aldrich, St. Louis, Mo.; 10-100 μM) and the PKG inhibitor (10-100 μM; Alexis Biochemicals) were dissolved in water. Cell counts and [^3H] thymidine incorporation. Rat and mouse SMC were isolated and cultured as described in Peyton et al. (Blood 99:4443-4448 (2002)). Proliferation assays were carried out as described in Petkova et al. (J Biol. Chem. 276:7932-7936 (2001)). For [^3H] thymidine incorporation studies, cells were serum-starved overnight and then stimulated with 10% serum containing 5 μCi/ml [^3H] thymidine (New England Nuclear, Boston Mass.). [^3H]thymidine incorporation was measured by scintillation spectroscopy and presented as mean counts/min/well. Histomorphometric analysis. Aortic grafts and carotid arteries were harvested at 56 and 14 days respectively. Vessels were fixed, embedded, and serially sectioned (5μ) in toto. Every third slide was stained with Hematoxylin and Eosin (H&E) for histomorphometric analyses. In both models, one or two images per slide at a resolution of 1520×1080 pixels were captured at a magnification of 25× with a Zeiss microscope (Axioskop, Iowa City, Iowa), RT color SPOT (Diagnostic Instrument, Inc., Saint Joseph, Mich.) and Windows NT (Compaq Computer) using Adobe Photoshop version 5.5 software. Areas from eight to ten captured images were calculated using digital imaging software as number of pixels corresponding to those areas. Twenty-four to forty-eight sections from each group were statistically analyzed with SPSS software version 10. Immunostaining and cell population histomorphometric analysis. […]

mouse SMC = experiment: SMC proliferation, [3H]thymidine incorporation; assay type: cell-based
Source text: as §1

p38 MAPK = experiment: Western blot of phosphorylated p38 MAPK in SMC; assay type: cell-based, mouse
Source text: as §1, with “The cGMP analogue 8-bromo-cGMP sodium salt (8-Br-cGMP; Sigma-Aldrich, St. Louis, Mo.; 10-100 μM) and the PKG inhibitor (10-100 μM; Alexis Biochemicals) were dissolved in water. Cell counts and [^3H] thymidine incorporation. Rat and mouse SMC were isolated and cultured as described in Peyton et al. (Blood 99:4443-4448 (2002)). Proliferation assays were carried out as described in Petkova et al. (J Biol. Chem. 276:7932-7936 (2001)). For [^3H] thymidine incorporation studies, cells were serum-starved overnight and then stimulated with 10% serum containing 5 μCi/ml [^3H] thymidine (New England Nuclear, Boston Mass.).” left out, “Histomorphometric analysis. Aortic grafts and carotid arteries were harvested at 56 and 14 days respectively. Vessels were fixed, embedded, and serially sectioned (5μ) in toto. Every third slide was stained with Hematoxylin and Eosin (H&E) for histomorphometric analyses. In both models, one or two images per slide at a resolution of 1520×1080 pixels were captured at a magnification of 25× with a Zeiss microscope (Axioskop, Iowa City, Iowa), RT color SPOT (Diagnostic Instrument, Inc., Saint Joseph, Mich.) and Windows NT (Compaq Computer) using Adobe Photoshop version 5.5 software.” left out, “10.” for “10. Immunostaining and cell population histomorphometric analysis.”

[1] = test system: intimal hyperplasia after balloon injury of the carotid artery; experiment: Balloon injury model of the carotid artery; assay type: in vivo, rat; settings: NO 250 ppm; one hour pre-treatment
Source text: (§2) Animals. Male (250-350 g) Brown Norway rats (RT1^n) were used as aortic graft donors and male (250-350 g) Lewis rats (RT11) as recipients. Dawley (400-450 g) rats were used in the balloon injury model. Adult male C57BL/6, C57/S129, p21^−/− and p53^−/− null mice were purchased from Jackson Laboratory (Bar Harbor, Me.). mkk3^(−/−) null mice were generated as described Lu et al. (EMBO. 18:1845-1857 (1999)). The inos^−/− and enos^−/− mice were bred at the University of Pittsburgh. Aortic transplant model. Aortic transplantation was performed as described in Shimizu et al. (Nat. Med. 7:738-741 (2001)). Briefly, 3 to 4 cm of descending aorta was harvested from the donor and implanted between the renal arteries and the aortic bifurcation of the recipient. Both edges of the native abdominal aorta were ligated. Balloon injury model. Balloon angioplasty was carried out as described in Murakami et al. (Atherosclerosis 157:361-368 (2001)). […] [^3H]thymidine incorporation was measured by scintillation spectroscopy and presented as mean counts/min/well. […] Areas from eight to ten captured images were calculated using digital imaging software as number of pixels corresponding to those areas. Twenty-four to forty-eight sections from each group were statistically analyzed with SPSS software version 10. […]

[2] = Nitric oxide exposure of rats before balloon angioplasty; assay type: in vivo, rat; settings: NO administered at 500 ppm, 1 hour
Source text: as §2

Structure (SMILES): C[S+]([O-])c1ccc(-c2nc(-c3ccncc3)c(-c3ccc(F)cc3)[nH]2)cc1 (centres unmarked) [SB203580, reference compound]
- Ability of 8Br-cGMP to up-regulate expression of p21Cip1 in presence of p38 MAPK inhibitor (p21Cip1; 8Br-cGMP plus SB203580): suppressed
- Ability of CO to up-regulate expression of p21Cip1 in presence of p38 MAPK inhibitor (p21Cip1; CO 250 ppm plus SB203580): blocked
- Anti-proliferative effect of 8Br-cGMP in presence of p38 MAPK inhibitor (mouse SMC; 8Br-cGMP plus SB203580): abrogated
- Anti-proliferative effect of CO in presence of p38 MAPK inhibitor (mouse SMC; CO 250 ppm plus SB203580): suppressed
- Effects of CO on proliferation in presence of p38 MAPK inhibitor (mouse SMC; SMC from p21-/- mice, CO 250 ppm plus SB203580): did not modulate

Structure (SMILES): O=c1onc2cnc3ccccc3n12 [ODQ, 1H(1,2,4) oxadiazolo(4,3-a)quinoxalin-1, reference compound]
- Ability of CO to up-regulate p21Cip1 expression under guanylate cyclase inhibition (p21Cip1; CO plus ODQ): impaired
- Activation of p38 MAPK by CO when cGMP generation is blocked (p38 MAPK; CO plus ODQ): abolished
- Ability of CO to suppress SMC proliferation under guanylate cyclase inhibition (mouse SMC; CO 250 ppm plus ODQ): impaired

Structure (SMILES): Nc1nc2c(nc(Br)n2[C@@H]2O[C@@H]3COP(=O)([O-])O[C@H]3[C@H]2O)c(=O)[nH]1.[Na+] [8-Br-cGMP, 8-Bromoguanosine 3′-5′-cyclic monophosphate sodium salt, reference compound]
- p21Cip1 expression (p21Cip1; SMC exposed to the cGMP analogue, comparably to CO): increased
- p38 MAPK activation (p38 MAPK; SMC exposed to the cGMP analogue): activated
- Suppression of proliferation by the cGMP analogue (mouse SMC; SMC derived from p21-/- mice): impaired
- SMC proliferation (mouse SMC; wild type SMC exposed to the cGMP analogue): suppressed

Structure (SMILES): [N]=O [NO, Nitric Oxide, reference compound]
- Intimal thickening triggered by balloon injury [1]: did not modulate
- Lethality [2]: lethal
